This is an account of results in patent EP0378255B1, “2-Aminopyrimidinone derivatives” (JANSSEN PHARMACEUTICA N.V., priority 1989, dated 1990).

Where two headings read alike, the source gives them in different places.

One assay relates to Wistar rats. The following applies: separated group of 8 rats, cited from earlier work.
The next assay deals with Tryptamine. The experiment in a line: Combined Apomorphine, Tryptamine and Norepinephrine (ATN) test in rats: tryptamine part. The class given is in vivo. The following applies: Rattus norvegicus.
The subject of assay [1] is compound 48/80. The experiment in a line: Gastric Lesions induced by compound 48/80 in rats (serotonin antagonism). The class given is in vivo. The following applies: Rattus norvegicus, read-out: Compound 48/80 tests ED₅₀ values Gastric lesions. As for the experimental part:
(§1) Int. Pharmacodyn. Ther., 227, 238-253, 1977. Further the activity of the subject compounds as serotonin antagonists is evidenced by the experimental data obtained in the "Gastric Lesions induced by compound 48/80 in rats" test, described in U.S.-4,335,127. […] All tests were carried out following the procedures described in the cited references and the experimental data are shown in Table 8.

The next assay deals with Apomorphine. The experiment in a line: Combined Apomorphine, Tryptamine and Norepinephrine (ATN) test in rats: apomorphine part. The class given is in vivo. As to conditions: Rattus norvegicus; read-out: Combined ATN test in rats ED₅₀ values (APO).
In a further assay the test system is Norepinephrine. The experiment in a line: Combined Apomorphine, Tryptamine and Norepinephrine (ATN) test in rats: norepinephrine part. The class given is in vivo. As to conditions: Rattus norvegicus; read-out: Combined ATN test in rats ED₅₀ values (NOR). As for the experimental part:
as §1

The subject of assay [2] is compound 48/80. The experiment in a line: Protection of Rats from compound 48/80 induced lethality (antihistaminic activity). The class given is in vivo. As to conditions: Rattus norvegicus, read-out: Compound 48/80 tests ED₅₀ values Lethality. How it is done: as §1
Where [3] appears, read: convulsions, read-out: Combined ATN test in rats ED₅₀ values (TRY) convulsions.
The mark [4] stands for this setting: hyperaemia, read-out: Combined ATN test in rats ED₅₀ values (TRY) hyperaemia.

As for `Cc1nc2sccn2c(=O)c1CCN1CCC(=C(c2ccc(F)cc2)c2ccc(F)cc2)CC1` [ritanserin, 6-[2-[4-[bis(4-fluorophenyl)methylene]-1-piperidinyl]ethyl]-7-methyl-5H-thiazolo[3,2-a]pyrimidin-5-one], the “effect on SWS2” value in the assay on Wistar rats (0.63 mg/kg, for 8 h, at the expense of W, SWS1 and PS) is “significant increase of SWS2”. In the assay on Wistar rats (doses of 0.04 and 0.16 mg/kg), the “effects on sleep-wakefulness patterns” value is given as “no major effects on sleep-wakefulness patterns”.
As to `Cc1nc2n(C)ncn2c(=O)c1CCN1CCC(c2noc3cc(F)ccc23)CC1` [Compound 89], the ED50 with Tryptamine (setting [3]) is 0.08 mg/kg; in the assay with Tryptamine (setting [4]) it was not above 0.0025 mg/kg; in the assay with compound 48/80 [1] it was 0.16 mg/kg; in the assay with Apomorphine it was 0.08 mg/kg; with Norepinephrine, 0.31 mg/kg; in the assay with compound 48/80 [2], 0.02 mg/kg.
In the case of `CCCNc1nc(C)c(CCN2CCN(c3nsc4ccccc34)CC2)c(=O)n1C` [Compound 71], the ED50 with Tryptamine (setting [3]) worked out at 0.08 mg/kg; in the assay on Tryptamine (setting [4]), 0.005 mg/kg; in the assay with compound 48/80 [1], 0.63 mg/kg; in the assay with Apomorphine, 0.08 mg/kg; in the assay with Norepinephrine, 1.25 mg/kg; in the assay on compound 48/80 [2] it was 0.16 mg/kg.
As to `Cc1nc(NCc2ccccn2)n(C)c(=O)c1CCN1CCC(c2noc3cc(F)ccc23)CC1` [Compound 19], the ED50 turned out to be 0.31 mg/kg in the assay on Tryptamine (setting [3]); 0.0025 mg/kg in the assay with Tryptamine (setting [4]); 0.04 mg/kg in the assay on compound 48/80 [1]; 0.08 mg/kg in the assay with Apomorphine; 0.08 mg/kg in the assay on Norepinephrine.
In the case of `Cc1nc2n(C)ncn2c(=O)c1CCN1CCN(c2noc3ccccc23)CC1` [Compound 114], the ED50 in the assay with Tryptamine (setting [3]) was 0.31 mg/kg; with Tryptamine (setting [4]) it was not above 0.04 mg/kg; with compound 48/80 [1], 0.16 mg/kg; in the assay with Apomorphine, 0.08 mg/kg; in the assay with Norepinephrine, 1.25 mg/kg.
For the compound `CC(=O)Nc1nc(C)c(CCN2CCC(C(=O)c3ccc(F)cc3)CC2)c(=O)n1C` [Compound 34], the ED50 in the assay on Tryptamine (setting [3]) was determined as 0.31 mg/kg; in the assay with Tryptamine (setting [4]) it was 0.005 mg/kg; with compound 48/80 [1] it was 0.04 mg/kg; in the assay on Apomorphine, 0.31 mg/kg; in the assay with Norepinephrine, 1.25 mg/kg.
On to `CCNc1nc(C)c(CCN2CCN(c3noc4ccccc34)CC2)c(=O)n1C` [Compound 69], for which the ED50 with Tryptamine (setting [3]) was 0.31 mg/kg; in the assay on Tryptamine (setting [4]) it was 0.00125 mg/kg; with compound 48/80 [1] it was 0.00125 mg/kg; in the assay on Apomorphine, 0.08 mg/kg; in the assay with Norepinephrine, 0.31 mg/kg; in the assay with compound 48/80 [2], 0.02 mg/kg.
With `Cc1nc2n(C)c(C)cn2c(=O)c1CCN1CCN(c2noc3ccccc23)CC1` [Compound 111], the ED50 in the assay with Tryptamine (setting [3]) amounted to 0.31 mg/kg; with Tryptamine (setting [4]), 0.005 mg/kg; in the assay with compound 48/80 [1], 0.16 mg/kg; in the assay on Apomorphine, 0.08 mg/kg; in the assay with Norepinephrine, 0.31 mg/kg.
In the case of `Cc1nc2n(C)ccn2c(=O)c1CCN1CCC(c2noc3cc(F)ccc23)CC1` [Compound 77], the ED50 is 0.04 mg/kg in the assay on Tryptamine (setting [3]); not above 0.00063 mg/kg with Tryptamine (setting [4]); 0.04 mg/kg in the assay on compound 48/80 [1]; 0.04 mg/kg in the assay with Apomorphine; 0.16 mg/kg in the assay with Norepinephrine; 0.005 mg/kg in the assay with compound 48/80 [2].
Regarding `Cc1nc2n(C)ccn2c(=O)c1CCN1CCN(c2nsc3ccccc23)CC1` [Compound 124], the ED50 with Tryptamine (setting [3]) came to 0.02 mg/kg; in the assay with Tryptamine (setting [4]), 0.00125 mg/kg; with compound 48/80 [1], 0.04 mg/kg; with Apomorphine, 0.08 mg/kg; with Norepinephrine it was 5 mg/kg; in the assay on compound 48/80 [2] it was 0.31 mg/kg.
Regarding `CC1=NN(C)c2nc(C)c(CCN3CCN(c4noc5ccccc45)CC3)c(=O)n2C1` [Compound 112], the ED50 was determined as 0.31 mg/kg in the assay with Tryptamine (setting [3]); 0.005 mg/kg with Tryptamine (setting [4]); 0.04 mg/kg with compound 48/80 [1]; 0.08 mg/kg in the assay on Apomorphine; 0.63 mg/kg in the assay with Norepinephrine; 0.16 mg/kg with compound 48/80 [2].
In the case of `Cc1nc2n(C)nc(C)n2c(=O)c1CCN1CCC(c2noc3cc(F)ccc23)CC1` [Compound 88], the ED50 in the assay with Tryptamine (setting [3]) is 0.08 mg/kg; with Tryptamine (setting [4]), 0.00125 mg/kg; in the assay with compound 48/80 [1], 0.04 mg/kg; in the assay with Apomorphine, 0.08 mg/kg; with Norepinephrine, 0.16 mg/kg.
`Cc1nc2n(c(=O)c1CCN1CCC(c3noc4cc(F)ccc34)CC1)CCN2C` [Compound 80]: the ED50 in the assay with Tryptamine (setting [3]) is 0.08 mg/kg; with Tryptamine (setting [4]), 0.00125 mg/kg; in the assay with compound 48/80 [1] it was 0.04 mg/kg; in the assay on Apomorphine, 0.08 mg/kg; in the assay with Norepinephrine, 0.31 mg/kg; with compound 48/80 [2], 0.005 mg/kg.
On to `Cc1nc2n(c(=O)c1CCN1CCN(c3noc4ccccc34)CC1)CCCN2C` [Compound 120], for which the ED50 in the assay with Tryptamine (setting [3]) was determined as 0.08 mg/kg; in the assay on Tryptamine (setting [4]), 0.02 mg/kg; in the assay on compound 48/80 [1], 0.63 mg/kg; in the assay with Apomorphine it was 0.02 mg/kg; with Norepinephrine, 1.25 mg/kg; in the assay with compound 48/80 [2], 0.01 mg/kg.
As for `CC1=NN(C)c2nc(C)c(CCN3CCC(c4noc5cc(F)ccc45)CC3)c(=O)n2C1` [Compound 86], the ED50 in the assay with Tryptamine (setting [3]) was found to be 0.04 mg/kg; in the assay with Tryptamine (setting [4]) it was 0.00125 mg/kg; in the assay on compound 48/80 [1], 0.02 mg/kg; with Apomorphine, 0.04 mg/kg; with Norepinephrine, 0.08 mg/kg.
As to `Cc1nc2n(c(=O)c1CCN1CCN(c3noc4ccccc34)CC1)CCN2C` [Compound 115], the ED50 with Tryptamine (setting [3]) is 0.31 mg/kg; in the assay with Tryptamine (setting [4]), 0.005 mg/kg; with compound 48/80 [1], 0.02 mg/kg; in the assay on Apomorphine, 0.08 mg/kg; in the assay on Norepinephrine, 1.25 mg/kg; with compound 48/80 [2], 0.04 mg/kg.
`Cc1nc2n(C)nc(C)n2c(=O)c1CCN1CCN(c2noc3ccccc23)CC1` [Compound 113]: the ED50 is 0.31 mg/kg in the assay on Tryptamine (setting [3]); 0.005 mg/kg with Tryptamine (setting [4]); 0.08 mg/kg in the assay with compound 48/80 [1]; 0.08 mg/kg with Apomorphine; 1.25 mg/kg in the assay on Norepinephrine.
